# Data taken from patent publication US7138406B2, “Modulators of the glucocorticoid receptor” (Pfizer, Inc., priority 2002, dated 2006).
# Test system: IL-8 (Interleukin-8) production
# Assay: glucocorticoid inhibition of IL-1 induced IL-8 production in human chondrosarcoma cells
# Type: cell-based
# Conditions: SW1353 human chondrosarcoma cells, 20 ng/ml IL-1 beta, 24 hours after addition of IL-1, ELISA; read-out: IC50, inhibitor of IL-8 expression
# Protocol: (§1) This assay, the glucocorticoid inhibition of IL-1 (Interleukin-1) induced MMP-1 (Matrix Metalloproteinase-1) and IL-8 (Interleukin-8) production in human chondrosarcoma cells, is conducted as follows: SW1353 human chondrosarcoma cells (obtained from ATCC) from passage 12 through passage 19 are used in a 96 well format assay. Cells are plated at confluence into 96 well plates in DMEM (Dulbecco's Modified Eagle Medium) with 10% fetal bovine serum and incubated at 37° C., 5% CO2. After 24 hours, serum containing media is removed and replaced with 200 ul/well DMEM containing 1 mg/L insulin, 2 g/L lactalbumin hydrosylate, and 0.5 mg/L ascorbic acid and returned to incubation at 37° C., 5% CO2. […] IL-8 production is assessed using the Quantikine human IL-8 ELISA kit from R&D Systems (D8050) on samples diluted 60-fold in RD5P Calibrator Diluent, following the manufacturer's protocol. The percent of the average IL-1 control is determined for the average of each of the triplicate samples following subtraction of the average signal from untreated cells. IC50's are determined from log linear plots of the percent of control versus the concentration of inhibitor. […] MMP-1 production is assessed via the Bio-Trak MMP-1 ELISA kit from Amersham (RPN2610) on 100 ul of neat sample following the manufacturer's protocol. […]
row,IC50 [nM],Structure (SMILES)
1,5,"C[C@@H]1C[C@H]2[C@@H]3CCC4=CC(=O)C=C[C@]4(C)[C@@]3(F)[C@@H](O)C[C@]2(C)[C@@]1(O)C(=O)CO [Dexamethasone, (11β,16α)-9-fluoro-11,17,21-trihydroxy-16-methylpregna-1,4-diene-3,20-dione]"

# Test system: MMP-1 (Matrix Metalloproteinase-1) production
# Assay: glucocorticoid inhibition of IL-1 induced MMP-1 production in human chondrosarcoma cells
# Type: cell-based
# Conditions: SW1353 human chondrosarcoma cells, 20 ng/ml IL-1 beta, 72 hours after IL-1 addition, ELISA; read-out: IC50, inhibitor of MMP1 expression
# Protocol: as §1
row,IC50 [nM],Structure (SMILES)
1,5,"C[C@@H]1C[C@H]2[C@@H]3CCC4=CC(=O)C=C[C@]4(C)[C@@]3(F)[C@@H](O)C[C@]2(C)[C@@]1(O)C(=O)CO [Dexamethasone, (11β,16α)-9-fluoro-11,17,21-trihydroxy-16-methylpregna-1,4-diene-3,20-dione]"

# Test system: not given
# Assay: not given
# Conditions: not given
row,melting point [°C],Structure (SMILES)
1,190 to 191,"CC[C@@]12C[C@@](C)(O)[C@](O)(c3ccccc3)C[C@H]1CCc1cc(OCC(=O)O)ccc12 [Example 70, (4bR,6R,7R,8aR)-(4b-Ethyl-6,7-dihydroxy-6-methyl-7-phenyl-4b,5,6,7,8,8a,9,10-octahydro-phenanthren-2-yloxy)-acetic acid]"
2,190 to 193,"CC[C@@]12C[C@@](C)(O)[C@](O)(c3ccccc3)C[C@H]1CCc1cc(OCC(C)(C)O)ccc12 [Example 73, (2R,3R,4aR,10aR)-4a-Ethyl-7-(2-hydroxy-2-methyl-propoxy)-3-methyl-2-phenyl-1,2,3,4,4a,9,10,10a-octahydro-phenanthrene-2,3-diol]"
3,108 to 110,"CC[C@@]12C[C@@](C)(O)[C@](O)(c3ccccc3)C[C@H]1CCc1cc(OCc3nnn[nH]3)ccc12 [Example 76, (2R,3R,4aR,10aR)-4a-Ethyl-3-methyl-2-phenyl-7-(1H-tetrazol-5-ylmethoxy)-1,2,3,4,4a,9,10,10a-octahydro-phenanthrene-2,3-diol]"

# Further lines, the compound ahead of its results:
row,Structure (SMILES),melting point [°C]
1,"CC[C@@]12C[C@H](O)[C@](O)(c3c(F)cccc3F)C[C@H]1CCc1cc(OCc3cccnc3C)ccc12 (hydrate or solvate) [Example 56, (2R,3S,4aR,10aR)-2-(2,6-Difluoro-phenyl)-4a-ethyl-7-(2-methyl-pyridin-3-ylmethoxy)-1,2,3,4,4a,9,10,10a-octahydro-phenanthrene-2,3-diol]",80 to 83
2,"CC[C@@]12C[C@H](O)[C@](O)(c3c(F)cccc3F)C[C@H]1CCc1cc(O)ccc12 [Example 35, (2R,3S,4aR,10aR)-2-(2,6-difluorophenyl)-4a-ethyl-1,2,3,4,4a,9,10,10a-octahydrophenanthrene-2,3,7-triol]",198 to 200
3,"CC[C@@]12C[C@H](N)[C@](O)(c3ccccc3)C[C@H]1CCc1cc(O)ccc12 [Example 41, (2R,3S,4aR,10aR)-3-Amino-4a-ethyl-2-phenyl-1,2,3,4,4a,9,10,10a-octahydro-phenanthrene-2,7-diol]",209 to 210
4,CC[C@@]12C[C@](O)(C(C)C)[C@](O)(c3ccccc3)C[C@H]1CCc1cc(O)ccc12 [Example 49],236 to 237
